From publication PMC8155809 (The Journal of General Physiology, 2021)
pIC50: −log10 of the molar value. Where two headings read alike, the source gives them in different places.

Key:
WT TREK-2 = target: T1, WT TREK-2 (Homo sapiens, UniProt P57789); assay: Single-channel recordings of WT TREK-2 in excised patches from HEK293 cells; type: cell-based
T1 construct: full-length WT TREK-2 channels, we examined its effects on the mean open time of TREK-2 channels expressed in HEK293 cells; expressed in transfected cells; host or cells: HEK293 cells, transient transfection with pcDNA3
T1 sequence (P57789 1-543 isoform P57789-4): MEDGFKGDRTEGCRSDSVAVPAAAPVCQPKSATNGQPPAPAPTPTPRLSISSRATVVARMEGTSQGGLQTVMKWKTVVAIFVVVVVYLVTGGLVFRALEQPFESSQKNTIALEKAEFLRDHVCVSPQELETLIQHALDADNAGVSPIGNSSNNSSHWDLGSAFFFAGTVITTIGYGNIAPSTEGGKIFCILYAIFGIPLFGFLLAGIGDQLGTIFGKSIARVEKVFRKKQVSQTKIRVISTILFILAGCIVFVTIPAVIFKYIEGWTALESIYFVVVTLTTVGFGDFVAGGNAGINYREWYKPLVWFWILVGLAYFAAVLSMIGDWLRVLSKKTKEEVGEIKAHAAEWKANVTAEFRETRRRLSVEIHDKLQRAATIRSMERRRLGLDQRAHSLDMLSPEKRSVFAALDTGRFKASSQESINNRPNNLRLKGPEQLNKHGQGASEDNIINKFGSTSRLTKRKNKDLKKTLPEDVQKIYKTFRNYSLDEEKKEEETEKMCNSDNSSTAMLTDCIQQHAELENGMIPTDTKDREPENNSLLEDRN
Method: (§1) Full-length human TREK-2 isoform 3 (NCBI accession no. NP_612191) was used throughout this study and was subcloned into the pFAW vector for expression in oocytes. The truncated construct used to generate protein (TREK-2ΔN/ΔC) is identical to that used previously to obtain crystal structures ([Dong et al., 2015]); it contains a deletion of 71 residues at the N terminus and 213 residues at the C terminus. […] Desamino chloro-fluoxetine (Toronto Research Chemicals) was dissolved in chloroform and diluted to working concentrations on the day of experimenting (maximum final concentration was 0.01%).
HEK293 cells were cultured in DMEM (Sigma) containing 10% FBS (Life Technologies), 3 mM glucose, and 2 mM glutamine at 37°C in a humidified atmosphere of 5% CO2/[…] at 37°C. Cells were transiently transfected with 0.2 µg channel pcDNA3 per dish using FuGENE 6 according to the manufacturer’s instructions. Cells were used 1–2 d after transfection.
(§2) For currents recorded in Xenopus laevis oocytes, giant-patch electrodes were pulled from thick-walled borosilicate glass and polished to give pipette resistances of ∼0.3–0.5 MΩ when filled with patch solution. Pipette solution contained (in mM) 116 NMDG, 4 KCl, 1 MgCl2, 3.6 CaCl2, and 10 HEPES (pH 7.4), while the bath solution contained (in mM) 120 KCl, 1 NaCl, 2 EGTA, and 10 HEPES (pH 7.3). Patches were perfused via a gravity-flow perfusion system and a HEKA EPC 10 USB single computer–controlled amplifier was used and currents recorded using a Patchmaster v2 × 90.5 (HEKA Electronics), filtered at 1 kHz, and sampled at 10 kHz. For currents recorded in HEK293 cells, patch electrodes were pulled from thick-walled borosilicate glass and polished to give pipette resistances of ∼3–5 MΩ when filled with patch solution. The currents were recorded from excised patches with both intracellular and extracellular solution containing 200 mM KCl and 10 mM HEPES (pH 6.0 with KOH). Patches were perfused via a gravity-flow perfusion system. Data were acquired with pClamp and recorded using an Axopatch 200B (Molecular Devices), filtered at 5 kHz, and sampled at 200 kHz. Single-channel currents were analyzed in an identical manner to those obtained from bilayers (see above).

human TREK-2 = target: T2, human TREK-2 (Homo sapiens, UniProt P57789); assay: Macroscopic TREK-2 currents in giant excised patches from Xenopus oocytes; type: cell-based
T2 construct: expressed in transfected cells; host or cells: Xenopus laevis oocytes injected with in vitro transcribed mRNA (pFAW vector)
T2 sequence (P57789 1-543 isoform P57789-4): T1 sequence (P57789 1-543 isoform P57789-4)
Method: as §1
Oocytes were prepared for injection of mRNA by collagenase digestion followed by manual defolliculation and stored in ND96 solution that contained (in mM) 96 NaCl, 2 KCl, 1.8 CaCl2, 1 MgCl2, and 10 HEPES (pH 7.4) and was supplemented with 2.5 mM sodium pyruvate 50 µg/ml gentamycin, 50 µg/ml tetracycline, 50 µg/ml ciprofloxacin, and 100 µg/ml amikacin. Cells were injected with 1–4 ng mRNA up to 4 d after isolation. In vitro transcription of mRNA was done using the Amplicap SP6 Kit (Cambio). Experiments were performed 12–24 h after injection at room temperature (22°C unless otherwise indicated). For measurement and comparison of basal whole-cell currents, oocytes were injected with 4 ng RNA and recorded exactly 24 h after injection.
as §2
The macroscopic concentration–inhibition relationships in Figs. 1 and 2 were fitted with a modified Hill equation:
I/I0=a+1−a/1+([X]/IC50)^h, (1) where I and IO are the currents in the presence and absence of inhibitor, respectively, [X] is the concentration of inhibitor, IC50 is the inhibitor concentration at which the inhibition is half maximal, h is the Hill coefficient, and a is the fraction of unblockable current; a = 0, except where indicated in the legend to Fig. 1.
The macroscopic concentration–activation relationships in Fig. 1 E were fitted with a modified Hill equation: I/I0=a+(1−a)([X]/IC50)^h/1+([X]/IC50)^h, (2) where I and IO are the currents in the presence and absence of agonist, respectively, [X] is the concentration of agonist, IC50 is the agonist concentration at which the activation is half maximal, h is the Hill coefficient, and a is the fraction of initial current.

[1] = Electrostriction measurement of membrane elasticity; type: physicochemical; conditions: 1–1,000 µM NFx
Method: Membrane elasticity measurements were performed as described previously ([Vitovic et al., 2013]). Briefly, a 1 kHz sine wave with an amplitude of 100 mV was applied to the membrane using a wave generator (Rigol DG821; Rigol Technologies). Due to the nonlinear dependence of membrane capacitance on the voltage V [C = C0 (1 + αV^2)], where C0 is the capacitance at V = 0 and α is the electrostriction coefficient, a third current harmonic with frequency 3 kHz and amplitude A3 is generated in addition to the basic first current harmonic, A1 (frequency 1 kHz).

[2] = +40 mV, in the presence of 80 µM TPA

NCCC(Oc1ccc(C(F)(F)F)cc1)c1ccccc1 (centres unmarked) [NFx, norfluoxetine]
mean Po (WT TREK-2; 10 µM NFx in the presence of 100 µM ML335, −40 mV): 0.69 ± 0.2 | amplitude ratio of γ (WT TREK-2; 10 µM NFx in the presence of 100 µM ML335 vs ML335 alone, −40 mV): 1.00 ± 0.01 | reduction of τo (mean open time) (WT TREK-2; 10 µM NFx, Fig. S6): ~30% | reduction of Po of WT TREK-2 channel (WT TREK-2; 10 µM NFx, no further change in the presence of NFx, as in Fig. S6): 79 ± 0.05% | τo (mean open time) (WT TREK-2; 10 µM NFx, −10 mV): 0.89 ms | reduction in γ (single-channel current amplitude) (WT TREK-2; 10 µM, −40 mV (Fig. 6B)): 11 ± 7% | reduction of channel Po (WT TREK-2; 10 µM, −40 mV (Fig. 6B)): 70 ± 0.03% | h (Hill coefficient), NFx inhibition (human TREK-2; 0 mV, Fig. S4): 0.72 | h (Hill coefficient), NFx inhibition (human TREK-2; +40 mV, Fig. S4): 0.74 | h (Hill coefficient), NFx inhibition (human TREK-2; +40 mV, NFx on its own, Fig. 1E): 1.0 | a (fraction of unblockable current) (human TREK-2; [2]): 0.05 | h (Hill coefficient), NFx inhibition (human TREK-2; [2]): 1.2 | h (Hill coefficient), NFx inhibition (human TREK-2; +40 mV, in the presence of 100 mM TEA): 0.8 | h (Hill coefficient), NFx inhibition (human TREK-2; +80 mV, Fig. S4): 0.79 | pIC50 (human TREK-2; IC50, NFx inhibition of TREK-2 currents, +40 mV, NFx on its own, Fig. 1E): 5.57 | pIC50 (human TREK-2; IC50, NFx inhibition of macroscopic WT TREK-2 currents, 0 mV, Fig. S4): 5.38 | pIC50 (human TREK-2; IC50, NFx inhibition of macroscopic WT TREK-2 currents, +40 mV, Fig. S4): 5.70 | pIC50 (human TREK-2; IC50, NFx inhibition of macroscopic WT TREK-2 currents, +80 mV, Fig. S4): 5.85 | h (Hill coefficient), NFx inhibition (human TREK-2; NFx on its own, Fig. 2C): 1.7 | pIC50 (human TREK-2; giant inside-out patches, physiological pH 7.4, NFx alone, read-out: IC50 for channel inhibition): ~5.52 | h (Hill coefficient), NFx inhibition (human TREK-2; in the presence of 50 µM ML335): 0.8 | h (Hill coefficient), NFx inhibition (human TREK-2; in the presence of 1 mM 2-APB): 0.6 | effect on the modulus of elasticity (E⊥) [1]: no obvious effect
